Measured values taken from patent US20220347130A1, “ANTI-OBESITY COMPOSITION CONTAINING COLCHICINE AND METFORMIN AS EFFECTIVE AGENTS” (priority 2021, published 2022).
Where two headings read alike, the source gives them in different places.

Columns and labels:
[1] = HFD obesity-induced rats; colchicine 50, 100, 200 μg/kg and/or metformin 200 mg/kg, oral once a day; FIG. 1
Method: Low fat diet (LFD: containing 10 kcal % fat) or high fat diet (HFD: containing 60 kcal % fat) feed was taken autonomously for 12 weeks in 6-week-old C57BL/6J sp. male rats. The obesity-induced rats due to the intake of the HFD feed additionally took the HFD feed for 12 weeks and were administered with colchicine of 50, 100, and 200 μg/kg or metformin of 200 mg/kg alone or co-administered with the colchicine and the metformin. A control drug, Xenical (orlistat ingredient) was administered alone at 60 mg/kg. All drugs were orally administered once a day.
Changes in body weight of obesity-induced rats were measured according to single administration of colchicine or metformin and co-administration of colchicine and metformin, which were illustrated in FIG. 1.

SREBP-1c = experiment: Expression of obesity-related gene SREBP-1c in epididymal fat of obesity-induced rats; format: in vivo; details: epididymal fat of HFD obesity-induced rats; colchicine 50, 100, 200 μg/kg and/or metformin 200 mg/kg, oral once a day; FIG. 4
Method: (§1) Meanwhile, after the drugs were administered to the obesity-induced rats, the expression of obesity-related genes SREBP-1c and FAS was measured, and the results thereof were illustrated in FIGS. 4A and 4B.

[2] = format: in vivo, rats; details: oral once a day; for blood levels of AST and ALT (in words): HFD obesity-induced rats, colchicine 50, 100, 200 μg/kg and/or metformin 200 mg/kg, Table 1; for ALT / AST: HFD rats, 12 weeks, blood
Method: Finally, after the drugs were administered to the obesity-induced rats, changes in blood levels of aspartate aminotransferase (AST) and alanine transaminase (ALT) were measured and illustrated in Table 1 below.

[3] = Epididymal fat weight of HFD obesity-induced rats; format: in vivo; details: for weight of epididymal fat: colchicine 50, 100, 200 μg/kg and/or metformin 200 mg/kg, oral once a day, FIG. 3; for effect of reducing the fat of the obesity-induced rats: summary of the results
Method: Next, after the drugs were administered to the obesity-induced rats, the weights of epididymal fat were measured and the results thereof was illustrated in FIG. 3.

[4] = system: FAS (fatty acid synthase); experiment: Expression of obesity-related gene FAS in epididymal fat of obesity-induced rats; format: in vivo; details: epididymal fat of HFD obesity-induced rats; colchicine 50, 100, 200 μg/kg and/or metformin 200 mg/kg, oral once a day; FIG. 4
Method: as §1

| SMILES | changes in body weight (increase in body weight induced by the HFD) [1] | expression of SREBP-1c (SREBP-1c) | blood levels of AST and ALT (in words) [2] | ALT ([2]; colchicine 50 μg/kg) [U/L] | AST ([2]; colchicine 50 μg/kg) [U/L] | ALT ([2]; colchicine 100 μg/kg) [U/L] | AST ([2]; colchicine 100 μg/kg) [U/L] | ALT ([2]; colchicine 200 μg/kg) [U/L] | AST ([2]; colchicine 200 μg/kg) [U/L] | weight of epididymal fat [3] | effect of reducing the fat of the obesity-induced rats [3] | expression of FAS [4] | ALT ([2]; metformin 200 mg/kg) [U/L] | AST ([2]; metformin 200 mg/kg) [U/L] | ALT ([2]; orlistat 60 mg/kg) [U/L] | AST ([2]; orlistat 60 mg/kg) [U/L] |
| --- | --- | --- | --- | --- | --- | --- | --- | --- | --- | --- | --- | --- | --- | --- | --- | --- |
| COc1cc2c(c(OC)c1OC)-c1ccc(OC)c(=O)cc1[C@@H](NC(C)=O)CC2 [Colchicine, colchicine] | not changed | not changed | not changed | 175.08 ± 2.78 | 372.26 ± 3.75 | 164.5 ± 2.11 | 346.91 ± 3.90 | 157.38 ± 3.3 | 309.24 ± 2.61 | not changed | almost no effect | not changed | – | – | – | – |
| CN(C)C(=N)N=C(N)N [Metformin, metformin] | slightly reduced | slightly reduced | slightly reduced | – | – | – | – | – | – | slightly reduced | a slight effect | slightly reduced | 156.41 ± 2.77 | 284.37 ± 2.78 | – | – |
| CCCCCCCCCCC[C@@H](C[C@@H]1OC(=O)[C@H]1CCCCCC)OC(=O)[C@H](CC(C)C)NC=O [Orlistat, orlistat] | – | – | – | – | – | – | – | – | – | – | – | – | – | – | 175.20 ± 3.11 | 203.31 ± 3.72 |
